Where two headings read alike, the source gives them in different places.
Test system: A549 cells
Test: Cellular proliferation/cytotoxicity assay (Alamar Blue), A549 cells
Conditions: read-out: Anti-proliferative/Cytotoxic activity (A549 cells)
[1] = A549 cells, 72 h, Alamar Blue (Resazurin)

Procedure: The anti-proliferative activity of the compounds as described herein, is evaluated using the OvCAR3, HCT116 and A549 cell lines and the Alamar Blue (Resazurin) cell viability assay (O'Brien et al. Eur J Biochem 267, 5421-5426, 2000). Resazurin is reduced to the fluorescent resorufin by cellular dehydrogenase activity, correlating with viable, proliferating cells. Test compounds are dissolved as 10 mM solutions in DMSO and subsequently diluted. Cells like HCT116 or A549 cells were seeded into 96 well flat bottom plates at a density of 10000 cells/well (OvCAR3 cells), 1000 cells/well (HCT116 cells) or 2000 cells/well (A549 cells) in a volume of 200 μl/well. 24 hours after seeding, 1 μl each of the compound dilutions are added into each well of the 96 well plates. Each compound dilution is tested as at least as duplicates. Wells containing untreated control cells were filled with 200 μl DMEM (Dulbecco's Modified Eagle Medium) containing 0.5 vol % v:v DMSO. The cells are then incubated with the substances for 72 h at 37° C. in a humidified atmosphere containing 5 vol % CO2. To determine the viability of the cells, 20 μl of a Resazurin solution (90 mg/l) are added. After 4 h incubation at 37° C., the fluorescence is measured by extinction at ? =544 nm and an emission of ? =590 nm (Wallac Victor2; Perkin Elmer, USA). For the calculation of the cell viability, the emission value from untreated cells is set as 100% viability and the fluorescence intensity of treated cells are set in relation to the values of untreated cells. Viabilities are expressed as % values. The corresponding IC50 values of the compounds for cytotoxic activity are determined from the concentration-effect curves by means of non-linear regression. The analysis of the data is performed using a biostatistical program (Graph Pad Prism, USA).

| Structure (SMILES) | IC50 (Homo sapiens, A549, 72 h) [µM] | IC50 [1] [µM] |
| --- | --- | --- |
| COc1nccn2c(-c3ccccc3)c(-c3ccc(CN4CCC(c5n[nH]c(-c6ccccn6)n5)CC4)cc3)nc12 [Example 27, 8-methoxy-3-phenyl-2-(4-{[4-(5-pyridin-2-yl-1,2,4-triazol-3-yl)piperidin-1-yl]methyl}phenyl)imidazo[1,2-a]pyrazine] | < 10 | – |
| Fc1cccc(-c2c(-c3ccc(CN4CCC(c5n[nH]c(-c6ccccn6)n5)CC4)cc3)nc3ccccn23)c1 [Example 14, 3-(3-fluorophenyl)-2-(4-{[4-(5-pyridin-2-yl-1,2,4-triazol-3-yl)piperidin-1-yl]methyl}phenyl)imidazo[1,2-a]pyridine] | < 10 | – |
| c1ccc(-c2c(-c3ccc(CN4CCC(c5n[nH]c(-c6ccncc6)n5)CC4)cc3)nc3ncccn23)cc1 [Example 55, ′3-phenyl-2-(4-{[4-(5-pyridin-4-yl-1H-1,2,4-triazol-3-yl)piperidin-1-yl]methyl}phenyl)imidazo[1,2-a]pyrimidine] | – | > 10 |
| Cc1ccc2nc(-c3ccc(CN4CCC(c5nnc(-c6ccco6)[nH]5)CC4)cc3)c(-c3ccccc3)n2n1 [Example 92, ′2-[4-({4-[5-(2-furyl)-4H-1,2,4-triazol-3-yl]piperidin-1-yl}methyl)phenyl]-6-methyl-3-phenylimidazo[1,2-b]pyridazine] | – | < 10 |
| c1ccc(-c2c(-c3ccc(CN4CCC(c5nnc(-c6ccncc6)[nH]5)CC4)cc3)nc3scnn23)cc1 [Example 60, ′5-phenyl-6-(4-{[4-(5-pyridin-4-yl-4H-1,2,4-triazol-3-yl)piperidin-1-yl]methyl}phenyl)imidazo[2,1-b][1,3,4]thiadiazole] | – | < 10 |
| c1ccc(-c2nnc(C3CCN(Cc4ccc(-c5nc6sccn6c5-c5ccccc5)cc4)CC3)[nH]2)cc1 [Example 122, 5-phenyl-6-(4-{[4-(5-phenyl-4H-1,2,4-triazol-3-yl)piperidin-1-yl]methyl}phenyl)imidazo[2,1-b][1,3]thiazole] | < 10 | – |
| c1ccc(-c2c(-c3ccc(CN4CCC(c5nnc(-c6ccncc6)[nH]5)CC4)cc3)nc3ccccn23)cc1 [Example 58, ′3-phenyl-2-(4-{[4-(5-pyridin-4-yl-4H-1,2,4-triazol-3-yl)piperidin-1-yl]methyl}phenyl)imidazo[1,2-a]pyridine] | – | < 10 |
| c1ccc(-c2c(-c3ccc(CN4CCC(c5cc(-c6ccccn6)n[nH]5)CC4)cc3)nc3ccccn23)cc1 [Example 111, ′3-phenyl-2-(4-{[4-(3-pyridin-2-yl-1H-pyrazol-5-yl)piperidin-1-yl]methyl}phenyl)imidazo[1,2-a]pyridine] | – | < 10 |
| c1ccc(-c2c(-c3ccc(CN4CCC(c5nnc(-c6cccs6)[nH]5)CC4)cc3)nc3ccccn23)cc1 [Example 97, ′3-phenyl-2-[4-({4-[5-(2-thienyl)-4H-1,2,4-triazol-3-yl]piperidin-1-yl}methyl)phenyl]imidazo[1,2-a]pyridine] | – | < 10 |
| N#Cc1ccn2c(-c3ccccc3)c(-c3ccc(CN4CCC(c5n[nH]c(-c6ccccn6)n5)CC4)cc3)nc2c1 [Example 29, 3-phenyl-2-(4-{[4-(5-pyridin-2-yl-1,2,4-triazol-3-yl)piperidin-1-yl]methyl}phenyl)imidazo[1,2-a]pyridine-7-carbonitrile] | > 10 | – |
| O=C(O)c1ccn2c(-c3ccccc3)c(-c3ccc(CN4CCC(c5nnc(-c6ccccn6)[nH]5)CC4)cc3)nc2c1 [Example 125, 3-phenyl-2-[4-({4-[5-(pyridin-2-yl)-4H-1,2,4-triazol-3-yl]piperidin-1-yl}methyl)phenyl]imidazo[1,2-a]pyridine-7-carboxylic acid] | > 10 | – |
| c1ccc(-c2c(-c3ccc(CN4CCC(c5nnc(-c6ncccn6)[nH]5)CC4)cc3)nc3scnn23)cc1 [Example 82, ′5-phenyl-6-(4-{[4-(5-pyrimidin-2-yl-4H-1,2,4-triazol-3-yl)piperidin-1-yl]methyl}phenyl)imidazo[2,1-b][1,3,4]thiadiazole] | – | < 10 |
| Cc1cccc(-c2nnc(C3CCN(Cc4ccc(-c5nc6scnn6c5-c5ccccc5)cc4)CC3)[nH]2)n1 [Example 67, ′6-[4-({4-[5-(6-methylpyridin-2-yl)-4H-1,2,4-triazol-3-yl]piperidin-1-yl}methyl)phenyl]-5-phenylimidazo[2,1-b][1,3,4]thiadiazole] | – | < 10 |
| Cc1ccc2nc(-c3ccc(CN4CCC(c5nnc(-c6ccc[nH]6)[nH]5)CC4)cc3)c(-c3ccccc3)n2n1 [Example 104, ′6-methyl-3-phenyl-2-[4-({4-[5-(1H-pyrrol-2-yl)-4H-1,2,4-triazol-3-yl]piperidin-1-yl}methyl)phenyl]imidazo[1,2-b]pyridazine] | – | < 10 |
| c1ccc(-c2nnc(C3CCN(Cc4ccc(-c5nc6ncccn6c5-c5ccccc5)cc4)CC3)[nH]2)cc1 [Example 121, 3-phenyl-2-(4-{[4-(5-phenyl-4H-1,2,4-triazol-3-yl)piperidin-1-yl]methyl}phenyl)imidazo[1,2-a]pyrimidine] | < 10 | – |
| c1ccc(-c2c(-c3ccc(CN4CCC(c5cc(-c6ccccn6)[nH]n5)CC4)cc3)nc3sccn23)cc1 [Example 113, ′5-phenyl-6-(4-{[4-(5-pyridin-2-yl-1H-pyrazol-3-yl)piperidin-1-yl]methyl}phenyl)imidazo[2,1-b][1,3]thiazole] | – | < 10 |

| Structure (SMILES) | IC50 (Homo sapiens, A549, 72 h) [µM] | IC50 [1] [µM] |
| --- | --- | --- |
| c1ccc(-c2c(-c3ccc(CN4CCC(c5nnc(-c6ccco6)[nH]5)CC4)cc3)nc3ncccn23)cc1 [Example 95, ′2-[4-({4-[5-(2-furyl)-4H-1,2,4-triazol-3-yl]piperidin-1-yl}methyl)phenyl]-3-phenylimidazo[1,2-a]pyrimidine] | – | > 10 |
| N#Cc1ccn2c(-c3ccccc3)c(-c3ccc(CN4CCC(c5nnc(-c6ccco6)[nH]5)CC4)cc3)nc2c1 [Example 96, ′2-[4-({4-[5-(2-furyl)-4H-1,2,4-triazol-3-yl]piperidin-1-yl}methyl)phenyl]-3-phenylimidazo[1,2-a]pyridine-7-carbonitrile] | – | < 10 |
| N#Cc1ccn2c(-c3ccccc3)c(-c3ccc(CN4CCC(c5nnc(-c6nccs6)[nH]5)CC4)cc3)nc2c1 [Example 89, ′3-phenyl-2-[4-({4-[5-(1,3-thiazol-2-yl)-4H-1,2,4-triazol-3-yl]piperidin-1-yl}methyl)phenyl]imidazo[1,2-a]pyridine-7-carbonitrile] | – | < 10 |
| c1ccc(-c2nnc(C3CCN(Cc4ccc(-c5nc6scnn6c5-c5ccccc5)cc4)CC3)[nH]2)cc1 [Example 123, 5-phenyl-6-(4-{[4-(5-phenyl-4H-1,2,4-triazol-3-yl)piperidin-1-yl]methyl}phenyl)imidazo[2,1-b][1,3,4]thiadiazole] | < 10 | – |
| Cc1cccn2c(-c3ccccc3)c(-c3ccc(CN4CCC(c5n[nH]c(-c6ccccn6)n5)CC4)cc3)nc12 [Example 8, 8-methyl-3-phenyl-2-(4-{[4-(5-pyridin-2-yl-1,2,4-triazol-3-yl)piperidin-1-yl]methyl}phenyl)imidazo[1,2-a]pyridine] | < 10 | – |
| Clc1ccn2c(-c3ccccc3)c(-c3ccc(CN4CCC(c5nnc(-c6ccccc6)[nH]5)CC4)cc3)nc2c1 [Example 120, 7-chloro-3-phenyl-2-(4-{[4-(5-phenyl-4H-1,2,4-triazol-3-yl)piperidin-1-yl]methyl}phenyl)imidazo[1,2-a]pyridine] | < 10 | – |
| Cc1ccc2nc(-c3ccc(CN4CCC(c5nnc(-c6cccs6)[nH]5)CC4)cc3)c(-c3ccccc3)n2n1 [Example 99, ′6-methyl-3-phenyl-2-[4-({4-[5-(2-thienyl)-4H-1,2,4-triazol-3-yl]piperidin-1-yl}methyl)phenyl]imidazo[1,2-b]pyridazine] | – | < 10 |
| c1ccc(-c2nc(C3CCN(Cc4ccc(-c5nc6ncccn6c5-c5cccs5)cc4)CC3)n[nH]2)nc1 [Example 35, 2-(4-{[4-(5-pyridin-2-yl-1,2,4-triazol-3-yl)piperidin-1-yl]methyl}phenyl)-3-(2-thienyl)imidazo[1,2-a]pyrimidine] | > 10 | – |
| Brc1cnc2nc(-c3ccc(CN4CCC(c5n[nH]c(-c6ccccn6)n5)CC4)cc3)c(-c3ccccc3)n2c1 [Example 12, 6-bromo-3-phenyl-2-(4-{[4-(5-pyridin-2-yl-1,2,4-triazol-3-yl)piperidin-1-yl]methyl}phenyl)imidazo[1,2-a]pyrimidine] | < 10 | – |
| Cc1ccc(-c2nnc(C3CCN(Cc4ccc(-c5nc6sccn6c5-c5ccccc5)cc4)CC3)[nH]2)nc1 [Example 73, ′6-[4-({4-[5-(5-methylpyridin-2-yl)-4H-1,2,4-triazol-3-yl]piperidin-1-yl}methyl)phenyl]-5-phenylimidazo[2,1-b][1,3]thiazole] | – | < 10 |
| Clc1ccn2c(-c3ccccc3)c(-c3ccc(CN4CCC(c5nnc(-c6cccs6)[nH]5)CC4)cc3)nc2c1 [Example 103, 7-chloro-3-phenyl-2-[4-({4-[5-(2-thienyl)-4H-1,2,4-triazol-3-yl]piperidin-1-yl}methyl)phenyl]imidazo[1,2-a]pyridine] | < 10 | – |
| Cc1ccc(-c2nnc(C3CCN(Cc4ccc(-c5nc6cc(C#N)ccn6c5-c5ccccc5)cc4)CC3)[nH]2)nc1 [Example 72, ′2-[4-({4-[5-(5-methylpyridin-2-yl)-4H-1,2,4-triazol-3-yl]piperidin-1-yl}methyl)phenyl]-3-phenylimidazo[1,2-a]pyridine-7-carbonitrile] | – | < 10 |
| COC(O)c1cn2c(-c3ccccc3)c(-c3ccc(CN4CCC(c5n[nH]c(-c6ccccn6)n5)CC4)cc3)nc2s1 (stereo not shown) [Example 126, methoxy[5-phenyl-6-(4-{[4-(5-pyridin-2-yl-1H-1,2,4-triazol-3-yl)piperidin-1-yl]methyl}phenyl)imidazo[2,1-b][1,3]thiazol-2-yl]methanol] | < 10 | – |
| N#Cc1cccn2c(-c3ccccc3)c(-c3ccc(CN4CCC(c5n[nH]c(-c6ccc(Cl)cn6)n5)CC4)cc3)nc12 [Example 75, ′2-[4-({4-[5-(5-chloropyridin-2-yl)-1H-1,2,4-triazol-3-yl]piperidin-1-yl}methyl)phenyl]-3-phenylimidazo[1,2-a]pyridine-8-carbonitrile] | – | > 10 |
| N#Cc1cccn2c(-c3ccccc3)c(-c3ccc(CN4CCC(c5nnc(-c6nccs6)[nH]5)CC4)cc3)nc12 [Example 86, ′3-phenyl-2-[4-({4-[5-(1,3-thiazol-2-yl)-4H-1,2,4-triazol-3-yl]piperidin-1-yl}methyl)phenyl]imidazo[1,2-a]pyridine-8-carbonitrile] | – | > 10 |
